The results in this text go back to patent publication US7652013B2, “Inhibitors of stearoyl-CoA desaturase” (Hoffman-La Roche Inc., priority 2007, dated 2010).

Some results are limits rather than exact numbers.

The target in one data set is T1, SCD1 (Mus musculus, UniProt P13516).
T1 construct: Mouse liver microsomes, prepared from mice fed a high carbohydrate diet, were a source of the SCD; from tissue; host or cells: mouse liver microsomes (mice fed a high carbohydrate diet)
T1 sequence (P13516 1-355): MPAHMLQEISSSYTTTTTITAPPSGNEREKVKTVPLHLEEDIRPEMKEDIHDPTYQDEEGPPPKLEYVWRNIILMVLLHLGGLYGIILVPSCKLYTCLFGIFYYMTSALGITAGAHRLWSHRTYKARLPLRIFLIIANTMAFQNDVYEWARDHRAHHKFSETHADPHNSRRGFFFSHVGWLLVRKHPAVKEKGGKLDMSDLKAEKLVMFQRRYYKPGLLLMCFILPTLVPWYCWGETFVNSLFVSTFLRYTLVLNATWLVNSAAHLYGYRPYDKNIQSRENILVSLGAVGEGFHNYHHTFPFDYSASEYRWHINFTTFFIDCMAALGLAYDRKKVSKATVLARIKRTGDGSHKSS
Nature of the data set: SCD assay: release of tritiated water from desaturation of 9,10-3H-stearoyl CoA, mouse liver microsomes. It is filed as biochemical. From the text: Stearoyl CoA desaturase activity was monitored by a modification of the acyl carrier protein assay described by B. R. Talamo and K. Bloch in Anal. Biochem. 1968, 29, 300-304. The SCD assay monitors the release of tritiated water from the desaturation of 9,10-^3H-stearoyl CoA.
Mouse liver microsomes, prepared from mice fed a high carbohydrate diet, were a source of the SCD and cyt b5 and cyt b5 reductase, necessary accessory proteins for the coupled reaction. Reaction mixtures for compound titrations contained 50 mM Tris HCl pH 7.5, 100 mM NaCl, 0.165 mg/ml BSA, 2.4% DMSO, 1 mM NADH, 0.03% T-20, and 300 nM (9,10) ^3H-stearoyl CoA (Perkin-Elmer). Reactions were initiated upon the addition of 4 ug/ml SCD microsomes. Incubations were terminated after 25 minutes at room temperature with cold 6% TCA. After standing 10 minutes at 4 deg C., samples were centrifuged 15 minutes at 4000 rpm to pellet precipitated protein. Supernatants were added to microtiter plates containing suspensions of activated charcoal (Darco G-60, Fisher Scientific) and mixed by inversion. Plates were then centrifuged to separate ^3H—H2O product from charcoal-bound reactants. Supernatants were quantitated in a Perkin Elmer Topcount 384 after solubilization in ScintiSafe Plus 50% (Fisher Scientific).
Inhibition (%) of SCD activity by compounds was calculated according to the following formula: % Inhibition=100*[1−(CPMsample−CPMblank)/(CPMtotal−CPMblank)]
In the case of `O=c1cc(N2CCN(Cc3ccc(F)cc3Cl)CC2)nc[nH]1` [Example 32, 6-[4-(2-Chloro-4-fluoro-benzyl)-piperazin-1-yl]-3H -pyrimidin-4-one], the IC50 (usually the concentration at which inhibition is half-maximal) was at least 1100 nM.

The molecule `O=c1cc(N2CCN(Cc3cccc(F)c3)CC2)nc[nH]1` [Example 33, 6-[4-(3-Fluoro-benzyl)-piperazin-1-yl]-3H-pyrimidin-4-one] came in with an IC50 of at least 1100 nM.

`O=c1cc(N2CCN(Cc3ccc(Br)cc3F)CC2)nc[nH]1` [Example 34, 6-[4-(4-Bromo-2-fluoro-benzyl)-piperazin-1-yl]-3H -pyrimidin-4-one] yielded an IC50 of at least 1100 nM.

The molecule `O=c1cc(N2CCN(Cc3c(Cl)ccc(Cl)c3Cl)CC2)nc[nH]1` [Example 16, 6-[4-(2,3,6-Trichloro-benzyl)-piperazin-1-yl]-3H-pyrimidin-4-one] registered an IC50 of at most 1000 nM.

Take `O=c1cc(N2CCN(Cc3cc(I)ccc3O)CC2)nc[nH]1` [Example 51, 6-[4-(2-Hydroxy-5-iodo-benzyl)-piperazin-1-yl]-3H -pyrimidin-4-one]: the IC50 was at most 1000 nM.

As to `O=c1cc(N2CCN(Cc3cccc(Br)c3O)CC2)nc[nH]1` [Example 48, 6-[4-(3-Bromo-2-hydroxy-benzyl)-piperazin-1-yl]-3H -pyrimidin-4-one], the IC50 is at most 1000 nM.

With `Cc1ccc(CN2CCN(c3cc(=O)[nH]cn3)CC2)c(C)c1` [Example 4, 6-[4-(2,4-Dimethyl-benzyl)-piperazin-1-yl]-3H-pyrimidin-4-one], the IC50 is at least 1100 nM.

For the molecule `COc1cc(Br)cc(CN2CCN(c3cc(=O)[nH]cn3)CC2)c1O` [Example 7, 6-[4-(5-Bromo-2-hydroxy-3-methoxy-benzyl)-piperazin-1-yl]-3H -pyrimidin-4-one], the IC50 is at most 1000 nM.

For `N#Cc1cccc(CN2CCN(c3cc(=O)[nH]cn3)CC2)c1` [Example 10, 3-[4-(6-Oxo-1,6-dihydro-pyrimidin-4-yl)-piperazin-1-ylmethyl]-benzonitrile], the half-inhibitory concentration (IC50) was at least 1100 nM.

The molecule `O=c1cc(N2CCN(Cc3ccccc3-c3ccccc3)CC2)nc[nH]1` [Example 36, 6-(4-Biphenyl-2-ylmethyl-piperazin-1-yl)-3H-pyrimidin-4-one] came in with an IC50 of at least 1100 nM.

With `O=c1cc(N2CCN(Cc3ccccc3C(F)(F)F)CC2)nc[nH]1` [Example 8, 6-[4-(2-Trifluoromethyl-benzyl)-piperazin-1-yl]-3H -pyrimidin-4-one], the IC50 is at most 1000 nM.

Turning to `O=c1cc(N2CCN(Cc3cccc(Cl)c3O)CC2)nc[nH]1` [Example 45, 6-[4-(3-Chloro-2-hydroxy-benzyl)-piperazin-1-yl]-3H -pyrimidin-4-one], the IC50 was at most 1000 nM.

Consider `O=c1cc(N2CCN(Cc3cc(C(F)(F)F)ccc3C(F)(F)F)CC2)nc[nH]1` [Example 9, 6-[4-(2,5-Bis-trifluoromethyl-benzyl)-piperazin-1-yl]-3H -pyrimidin-4-one], for which the IC50 was at most 1000 nM.

Molecule `Cc1ccccc1CN1CCN(c2cc(=O)[nH]cn2)CC1` [Example 2, 6-[4-(2-Methyl-benzyl)-piperazin-1-yl]-3H-pyrimidin-4-one] had an IC50 of at most 1000 nM.

The molecule `O=c1cc(N2CCN(Cc3ccc(F)c(Cl)c3)CC2)nc[nH]1` [Example 22, 6-[4-(3-Chloro-4-fluoro-benzyl)-piperazin-1-yl]-3H -pyrimidin-4-one] had an IC50 of at most 1000 nM.

In turn, `O=c1cc(N2CCN(Cc3cc(Br)ccc3O)CC2)nc[nH]1` [Example 25, 6-[4-(5-Bromo-2-hydroxy-benzyl)-piperazin-1-yl]-3H -pyrimidin-4-one] registered an IC50 of at most 1000 nM.

`Cc1cccc(CN2CCN(c3cc(=O)[nH]cn3)CC2)c1` [Example 1, 6-[4-(3-Methyl-benzyl)-piperazin-1-yl]-3H-pyrimidin-4-one] displayed an IC50 of at most 1000 nM.

Test system in another data set: not given
Test: not given
With `O=c1cc(N2CCN(Cc3ccc(F)cc3Cl)CC2)nc[nH]1` [Example 32, 6-[4-(2-Chloro-4-fluoro-benzyl)-piperazin-1-yl]-3H -pyrimidin-4-one], the melting point (commonly the temperature of the solid-liquid transition) is 255 to 256 °C (dec.).

As to `O=c1cc(N2CCN(Cc3cccc(F)c3)CC2)nc[nH]1` [Example 33, 6-[4-(3-Fluoro-benzyl)-piperazin-1-yl]-3H-pyrimidin-4-one], the melting point is 273 to 275 °C (dec.).

`O=c1cc(N2CCN(Cc3ccc(Br)cc3F)CC2)nc[nH]1` [Example 34, 6-[4-(4-Bromo-2-fluoro-benzyl)-piperazin-1-yl]-3H -pyrimidin-4-one] returned a melting point of 275 to 276 °C.
